Key:
[1] = Binding affinity against melibiose permease ofEscherichia coli; design: species or system Escherichia coli
[2] = Binding affinity against melibiose permease of Escherichia coli

Row | SMILES | Kd [1] [nM] | Kd [2] [nM]
1 | N#[N+]c1ccc(OC2O[C@H](CO)[C@@H](O)[C@H](O)[C@H]2O)cc1 (some centres undefined) | 60000 | 
2 | [N-]=[N+]=Nc1ccc(OC2O[C@H](CO)[C@@H](O)[C@H](O)[C@H]2O)cc1 (some centres undefined) | 1000 | 
3 | OC[C@H]1OC(Oc2ccc(C3(C(F)(F)F)N=N3)cc2)[C@H](O)[C@@H](O)[C@@H]1O (some centres undefined) | 2000 | 
4 | O=[N+]([O-])c1ccc(O[C@H]2O[C@H](CO)[C@@H](O)[C@H](O)[C@H]2O)cc1 |  | 600

— ChEMBL document CHEMBL1132886, “Syntheses and properties of photoactivatable sugar derivatives designed to probe the sugar-binding site of melibiose permease” (Bioorg Med Chem Lett, 2000)
